Assay results reported in ChEMBL document CHEMBL3091332, “Recycling antimalarial leads for cancer: Antiproliferative properties of N-cinnamoyl chloroquine analogues” (Bioorg Med Chem Lett, 2013).

Key:
[1] = Antiproliferative activity against human MKN28 cells after 2 days by sulforhodamine B assay; assay type: functional; details: MKN-28, 48 h
[2] = Antiproliferative activity against human HFF1 cells after 2 days by sulforhodamine B assay; assay type: cell-based, HFF-1
MCF7 = test: Antiproliferative activity against human MCF7 cells after 2 days by sulforhodamine B assay; assay type: functional; details: MCF7, 48 h
Caco-2 = test: Antiproliferative activity against human Caco2 cells after 2 days by sulforhodamine B assay; assay type: functional; details: Caco-2, 48 h
[3] = target: Receptor tyrosine-protein kinase erbB-2 (Homo sapiens, UniProt P04626); test: Inhibition of human HER2
Sequence of Receptor tyrosine-protein kinase erbB-2 (P04626 whole entry): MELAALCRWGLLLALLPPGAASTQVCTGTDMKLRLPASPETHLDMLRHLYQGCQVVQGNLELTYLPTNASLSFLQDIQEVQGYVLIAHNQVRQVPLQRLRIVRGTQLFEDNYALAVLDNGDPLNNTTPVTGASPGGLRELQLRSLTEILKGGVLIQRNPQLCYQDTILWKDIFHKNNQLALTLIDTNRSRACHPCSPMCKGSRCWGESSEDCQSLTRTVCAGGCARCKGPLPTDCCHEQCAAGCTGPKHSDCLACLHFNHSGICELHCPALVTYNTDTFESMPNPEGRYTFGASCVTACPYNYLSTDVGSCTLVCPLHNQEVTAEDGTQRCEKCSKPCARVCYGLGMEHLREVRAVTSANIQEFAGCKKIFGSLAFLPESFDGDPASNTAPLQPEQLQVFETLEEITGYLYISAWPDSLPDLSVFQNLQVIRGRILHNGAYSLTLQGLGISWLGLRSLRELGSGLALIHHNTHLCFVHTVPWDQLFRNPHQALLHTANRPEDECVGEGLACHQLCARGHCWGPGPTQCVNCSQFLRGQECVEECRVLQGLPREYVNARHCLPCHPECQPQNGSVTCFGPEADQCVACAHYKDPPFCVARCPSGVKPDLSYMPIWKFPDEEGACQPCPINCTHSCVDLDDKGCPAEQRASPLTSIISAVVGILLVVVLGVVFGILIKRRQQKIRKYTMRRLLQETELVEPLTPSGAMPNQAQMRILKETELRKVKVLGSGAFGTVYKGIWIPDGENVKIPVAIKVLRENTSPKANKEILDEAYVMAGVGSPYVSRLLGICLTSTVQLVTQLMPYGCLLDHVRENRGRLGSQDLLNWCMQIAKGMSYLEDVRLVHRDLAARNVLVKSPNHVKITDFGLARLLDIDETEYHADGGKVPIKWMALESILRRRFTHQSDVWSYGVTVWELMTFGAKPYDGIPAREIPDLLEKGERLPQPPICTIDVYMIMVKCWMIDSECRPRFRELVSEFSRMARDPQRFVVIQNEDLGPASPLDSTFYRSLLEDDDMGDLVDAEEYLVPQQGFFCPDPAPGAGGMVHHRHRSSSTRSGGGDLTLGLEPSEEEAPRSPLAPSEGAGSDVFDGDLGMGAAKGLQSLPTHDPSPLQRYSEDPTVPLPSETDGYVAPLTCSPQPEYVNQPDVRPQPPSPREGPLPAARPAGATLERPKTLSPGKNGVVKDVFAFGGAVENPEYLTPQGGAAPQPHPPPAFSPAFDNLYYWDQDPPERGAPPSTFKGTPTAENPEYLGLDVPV

Row | SMILES | GI50 [1] | GI50 at 48 h [2] | GI50 (MCF7) | GI50 (Caco-2) | IC50 [3]
1 | CC(C)c1ccc(/C=C/C(=O)NCCCCCNc2ccnc3cc(Cl)ccc23)cc1 | 14 µM | > 100 µM | 20.1 µM | 9.16 µM | 
2 | O=C(/C=C/c1ccc(F)cc1)NCCCNc1ccnc2cc(Cl)ccc12 | 34.7 µM | 44.8 µM | 5.24 µM | 44.1 µM | 
3 | COc1ccc(/C=C/C(=O)OCCCCNc2ccnc3cc(Cl)ccc23)cc1 | 6.6 µM | 75.2 µM | 5.08 µM | 17.3 µM | 
4 | CC(C)c1ccc(/C=C/C(=O)NCCCCNc2ccnc3ccccc23)cc1 | 5.55 µM | 39.1 µM | 5.24 µM | 6.75 µM | 
5 | COc1ccc(/C=C/C(=O)NCCCCNc2ccncc2)cc1 | 84.5 µM | > 100 µM | 77.1 µM | > 100 µM | 
6 | CC(C)c1ccc(/C=C/C(=O)NCCCCN2CCOCC2)cc1 | 72.5 µM | > 100 µM | 32.7 µM | 29.6 µM | 
7 | O=C(/C=C/c1ccccc1)NCCCCNc1ccnc2cc(Cl)ccc12 | 16.2 µM | > 100 µM | 14.8 µM | 24.1 µM | 
8 | CC(C)c1ccc(/C=C/C(=O)NCCCCNc2ccnc3cc(Cl)ccc23)cc1 | 22.3 µM | > 100 µM | 8.09 µM | 11.9 µM | 
9 | COc1ccc(/C=C/C(=O)NCCCCNc2ccnc3cc(Cl)ccc23)cc1 | 16.9 µM | > 100 µM | 25.2 µM | 30.7 µM | 
10 | O=C(/C=C/c1cccc(F)c1)NCCCCNc1ccnc2cc(Cl)ccc12 | 15.3 µM | > 100 µM | 14.8 µM | 25.4 µM | 
11 | O=C(/C=C/c1ccc(F)cc1)NCCCCNc1ccnc2cc(Cl)ccc12 | 11.8 µM | > 100 µM | 12.5 µM | 15 µM | 
12 | O=C(/C=C/c1ccccc1[N+](=O)[O-])NCCCCNc1ccnc2cc(Cl)ccc12 | 15.1 µM | > 100 µM | 13.3 µM | 11.9 µM | 
13 | O=C(/C=C/c1cccc([N+](=O)[O-])c1)NCCCCNc1ccnc2cc(Cl)ccc12 | 16.2 µM | > 100 µM | 59.3 µM | 19.3 µM | 
14 | CCOc1cc2ncc(C#N)c(Nc3ccc(OCc4ccccn4)cc3)c2cc1NC(=O)/C=C/CN(C)C |  |  |  |  | 59 nM
15 | CCN(CC)CCCC(C)Nc1ccnc2cc(Cl)ccc12 (stereo unspecified) [CHLOROQUINE] | 44.4 µM | > 100 µM | 64.3 µM | 38.7 µM | 
16 | COc1cccc2c1C(=O)c1c(O)c3c(c(O)c1C2=O)C[C@@](O)(C(=O)CO)C[C@@H]3O[C@H]1C[C@H](N)[C@H](O)[C@H](C)O1 [DOXORUBICIN] | 0.24 µM | > 400 µM | 0.31 µM | 0.32 µM | 
